Laboratory results taken from patent publication US12617779B2, “Self degradation-type CDK9 inhibitor prodrug and liposome encapsulating same” (Sumitomo Pharma Co., Ltd., priority 2021, dated 2026).

Experiment: Evaluation of conversion rate to active form in buffer solution (Experimental Example 1)
Assay type: physicochemical
Conditions: for Production rate of Alvocidib / Residual rate: 37° C., 25 umol/L in buffer solution; for Stability in buffer solution at pH 5: pH 5, 37° C., up to 2 or 3 hours; for Conversion to Alvocidib at pH 7.4: pH 7.4, 37° C., up to 3 hours
Procedure, shortened: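 Compounds at 25 umol/L were held at 37 °C in 50 mM citrate (pH 5.0, 5.5) or phosphate (pH 6.0–7.4) buffers. Remaining compound and Alvocidib formed were quantified by HPLC at 0, 0.5, 1, 2 and 3 h.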

SMILES: CN1CC[C@H](c2c(OC(=O)N(Cc3ccccc3)CC3CCCCN3)cc(O)c3c(=O)cc(-c4ccccc4Cl)oc23)[C@H](O)C1 (stereo partly drawn) [Example 15, 2-(2-chlorophenyl)-5-hydroxy-8-[(3S,4R)-3-hydroxy-1-methylpiperidin-4-yl]-4-oxo-4H-1-benzopyran-7-yl benzyl [(piperidin-2-yl)methyl]carbamate]
- Production rate of Alvocidib (pH5.0, 0 hr): 1.4%
- Residual rate (pH5.0, 0 hr): 95.6%
- Stability in buffer solution at pH 5: stable
- Production rate of Alvocidib (pH5.0, 0.5 hr): 1.9%
- Residual rate (pH5.0, 0.5 hr): 95.2%
- Production rate of Alvocidib (pH5.0, 1 hr): 2.6%
- Residual rate (pH5.0, 1 hr): 94.7%
- Production rate of Alvocidib (pH5.0, 2 hr): 3.8%
- Residual rate (pH5.0, 2 hr): 93.5%
- Production rate of Alvocidib (pH5.0, 3 hr): 4.6%
- Residual rate (pH5.0, 3 hr): 92.5%
- Production rate of Alvocidib (pH5.5, 0 hr): 1.4%
- Residual rate (pH5.5, 0 hr): 95.6%
- Production rate of Alvocidib (pH5.5, 0.5 hr): 2.8%
- Residual rate (pH5.5, 0.5 hr): 94.2%
- Production rate of Alvocidib (pH5.5, 1 hr): 4.5%
- Residual rate (pH5.5, 1 hr): 92.7%
- Production rate of Alvocidib (pH5.5, 2 hr): 7.8%
- Residual rate (pH5.5, 2 hr): 89.5%
- Production rate of Alvocidib (pH5.5, 3 hr): 9.5%
- Residual rate (pH5.5, 3 hr): 87.8%
- Production rate of Alvocidib (pH6.0, 0 hr): 1.5%
- Residual rate (pH6.0, 0 hr): 95.5%
- Production rate of Alvocidib (pH6.0, 0.5 hr): 6.2%
- Residual rate (pH6.0, 0.5 hr): 91.0%
- Production rate of Alvocidib (pH6.0, 1 hr): 12.4%
- Residual rate (pH6.0, 1 hr): 84.7%
- Production rate of Alvocidib (pH6.0, 2 hr): 22.3%
- Residual rate (pH6.0, 2 hr): 62.8%
- Production rate of Alvocidib (pH6.0, 3 hr): 25.7%
- Residual rate (pH6.0, 3 hr): 56.7%
- Production rate of Alvocidib (pH6.5, 0 hr): 1.9%
- Residual rate (pH6.5, 0 hr): 94.8%
- Production rate of Alvocidib (pH6.5, 0.5 hr): 15.1%
- Residual rate (pH6.5, 0.5 hr): 82.2%
- Production rate of Alvocidib (pH6.5, 1 hr): 26.1%
- Residual rate (pH6.5, 1 hr): 56.3%
- Production rate of Alvocidib (pH6.5, 2 hr): 44.6%
- Residual rate (pH6.5, 2 hr): 32.9%
- Production rate of Alvocidib (pH6.5, 3 hr): 52.4%
- Residual rate (pH6.5, 3 hr): 24.3%
- Production rate of Alvocidib (pH7.0, 0 hr): 2.8%
- Residual rate (pH7.0, 0 hr): 94.1%
- Production rate of Alvocidib (pH7.0, 0.5 hr): 40.7%
- Residual rate (pH7.0, 0.5 hr): 38.5%
- Production rate of Alvocidib (pH7.0, 1 hr): 56.9%
- Residual rate (pH7.0, 1 hr): 7.1%
- Production rate of Alvocidib (pH7.0, 2 hr): 69.8%
- Residual rate (pH7.0, 2 hr): 3.8%
- Production rate of Alvocidib (pH7.0, 3 hr): 69.9%
- Residual rate (pH7.0, 3 hr): 3.9%
- Production rate of Alvocidib (pH7.4, 0 hr): 4.8%
- Residual rate (pH7.4, 0 hr): 92.2%
- Conversion to Alvocidib at pH 7.4: rapidly converted to Alvocidib
- Production rate of Alvocidib (pH7.4, 0.5 hr): 54.7%
- Residual rate (pH7.4, 0.5 hr): 21.1%
- Production rate of Alvocidib (pH7.4, 1 hr): 67.3%
- Residual rate (pH7.4, 1 hr): 8.0%
- Production rate of Alvocidib (pH7.4, 2 hr): 75.2%
- Residual rate (pH7.4, 2 hr): 3.1%
- Production rate of Alvocidib (pH7.4, 3 hr): 77.2%
- Residual rate (pH7.4, 3 hr): 2.9%

SMILES: CCN(CCC1CCCCN1)C(=O)Oc1cc(O)c2c(=O)cc(-c3ccccc3Cl)oc2c1[C@H]1CCN(C)C[C@H]1O (stereo partly drawn) [Example 16, 2-(2-chlorophenyl)-5-hydroxy-8-[(3S,4R)-3-hydroxy-1-methylpiperidin-4-yl]-4-oxo-4H-1-benzopyran-7-yl ethyl[2-(piperidin-2-yl)ethyl]carbamate]
- Production rate of Alvocidib (pH5.0, 0 hr): 0.0%
- Residual rate (pH5.0, 0 hr): 84.3%
- Stability in buffer solution at pH 5: stable
- Production rate of Alvocidib (pH5.0, 0.5 hr): 0.0%
- Residual rate (pH5.0, 0.5 hr): 84.9%
- Production rate of Alvocidib (pH5.0, 1 hr): 0.0%
- Residual rate (pH5.0, 1 hr): 86.4%
- Production rate of Alvocidib (pH5.0, 2 hr): 0.0%
- Residual rate (pH5.0, 2 hr): 86.1%
- Production rate of Alvocidib (pH5.0, 3 hr): 0.0%
- Residual rate (pH5.0, 3 hr): 86.1%
- Production rate of Alvocidib (pH5.5, 0 hr): 0.0%
- Residual rate (pH5.5, 0 hr): 84.9%
- Production rate of Alvocidib (pH5.5, 0.5 hr): 0.0%
- Residual rate (pH5.5, 0.5 hr): 85.8%
- Production rate of Alvocidib (pH5.5, 1 hr): 0.0%
- Residual rate (pH5.5, 1 hr): 86.3%
- Production rate of Alvocidib (pH5.5, 2 hr): 0.0%
- Residual rate (pH5.5, 2 hr): 85.7%
- Production rate of Alvocidib (pH5.5, 3 hr): 0.0%
- Residual rate (pH5.5, 3 hr): 86.6%
- Production rate of Alvocidib (pH6.0, 0 hr): 0.0%
- Residual rate (pH6.0, 0 hr): 85.3%
- Production rate of Alvocidib (pH6.0, 0.5 hr): 0.0%
- Residual rate (pH6.0, 0.5 hr): 84.3%
- Production rate of Alvocidib (pH6.0, 1 hr): 12.8%
- Residual rate (pH6.0, 1 hr): 71.7%
- Production rate of Alvocidib (pH6.0, 2 hr): 21.6%
- Residual rate (pH6.0, 2 hr): 63.0%
- Production rate of Alvocidib (pH6.0, 3 hr): 29.3%
- Residual rate (pH6.0, 3 hr): 55.6%
- Production rate of Alvocidib (pH6.5, 0 hr): 0.0%
- Residual rate (pH6.5, 0 hr): 86.0%
- Production rate of Alvocidib (pH6.5, 0.5 hr): 16.4%
- Residual rate (pH6.5, 0.5 hr): 67.6%
- Production rate of Alvocidib (pH6.5, 1 hr): 25.3%
- Residual rate (pH6.5, 1 hr): 61.4%
- Production rate of Alvocidib (pH6.5, 2 hr): 47.1%
- Residual rate (pH6.5, 2 hr): 37.4%
- Production rate of Alvocidib (pH6.5, 3 hr): 51.5%
- Residual rate (pH6.5, 3 hr): 34.9%
- Production rate of Alvocidib (pH7.0, 0 hr): 0.0%
- Residual rate (pH7.0, 0 hr): 86.2%
- Production rate of Alvocidib (pH7.0, 0.5 hr): 30.5%
- Residual rate (pH7.0, 0.5 hr): 54.8%
- Production rate of Alvocidib (pH7.0, 1 hr): 50.2%
- Residual rate (pH7.0, 1 hr): 35.7%
- Production rate of Alvocidib (pH7.0, 2 hr): 68.6%
- Residual rate (pH7.0, 2 hr): 16.9%
- Production rate of Alvocidib (pH7.0, 3 hr): 78.2%
- Residual rate (pH7.0, 3 hr): 7.7%
- Production rate of Alvocidib (pH7.4, 0 hr): 0.9%
- Residual rate (pH7.4, 0 hr): 85.3%
- Conversion to Alvocidib at pH 7.4: rapidly converted to Alvocidib
- Production rate of Alvocidib (pH7.4, 0.5 hr): 59.0%
- Residual rate (pH7.4, 0.5 hr): 23.2%
- Production rate of Alvocidib (pH7.4, 1 hr): 77.8%
- Residual rate (pH7.4, 1 hr): 5.9%
- Production rate of Alvocidib (pH7.4, 2 hr): 82.1%
- Residual rate (pH7.4, 2 hr): 2.2%
- Production rate of Alvocidib (pH7.4, 3 hr): 85.8%
- Residual rate (pH7.4, 3 hr): 0.0%
